Data reported in patent publication US12410179B2, “Modulators of TNF alpha activity and uses thereof” (RayThera, Inc., priority 2023, dated 2025).

Columns and labels:
TNFα [1] = biological target: T1, TNFα (Homo sapiens, UniProt P01375); experiment: Human dermal fibroblast cell potency assay (IL-8 HTRF); format: cell-based; set-up: purchased R&D biosystem (R&D Systems) 210-TA-020/CF; conditions: human dermal fibroblasts, hTNFα 10 ng/mL, 24 h; for Emax: read-out: HDF_IL-8, Emax; for IC50: read-out: HDF_IL-8, IC50
T1 sequence (P01375 77-233 limits assumed): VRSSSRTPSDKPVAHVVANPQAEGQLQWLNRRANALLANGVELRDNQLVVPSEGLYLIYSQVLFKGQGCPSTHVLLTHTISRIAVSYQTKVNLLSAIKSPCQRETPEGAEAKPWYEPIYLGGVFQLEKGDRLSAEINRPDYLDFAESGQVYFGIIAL
Method: The potency of compounds was examined in Human dermal fibroblast cells (HDF). […] When used for assay, 40 μL of HDF suspension (2000 cell/well) was seeded into each well of 384-well plates (Corning 3764). After overnight culture, replenish fresh culture medium with 5% fetal bovine serum. A serial dilution of work solution of tested compound was made in DMSO with 1000× of final concentration, and 50 nL of compound DMSO solution was transferred into another set of 384-well plates by Echo, and incubated with 10 μL of recombinant hTNFα (R&D biosystem, Cat #210-TA-020/CF) for 1 h at 37° C. The compound/hTNFα mixture was then transferred to the 384-plate containing HDF, and then incubated at 37° C. with 5% CO2 for 24 h. The final concentration of hTNFα is 10 ng/mL.
After incubation, 16 μL of induced cell supernatant was transferred to a new 384-well Optiplate well to mix with 4 μL of IL-8 antibody cocktail (Revvity #62HIL08PEH). After overnight incubation, the plate was read using EnSight™ Multimode Microplate Reader (Perkin Elmer) for HTRF signal.
The percentage of inhibition was calculated by the following formula: % inhibition=(positive control−Sample)/(positive control−negative control)*100
Positive control: HTRF reading of cells with hTNFα stimulation.
Negative control: HTRF reading of cells without hTNFα stimulation.
Sample: HTRF reading of cells with compound at specific concentration and hTNFα stimulation
The % inhibition was plotted against compound concentration in logarithmic scale and the IC50 was rendered using 4-parameter nonlinear regression (GraphPad Prism).

TNFα [2] = biological target: T1, TNFα; experiment: HEK-Blue hTNFα reporter assay; format: cell-based; set-up: purchased R&D biosystem (R&D Systems) 210-TA-020/CF; conditions: HEK-Blue hTNFα reporter cells; for Emax: read-out: TNFα reporter, Emax
Procedure, shortened: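 IC50 from 4-parameter regression of % inhibition, with OD620 of secreted SEAP (QUANTI-Blue, 1 h) referenced to cells with and without hTNFα. HEK-Blue TNFα reporter cells were exposed 24 h to compound premixed 1 h with hTNFα ([…]).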

TNFα [3] = biological target: T1, TNFα; experiment: TNFα human whole blood screening assay (CD11b on granulocytes, zymosan challenge); format: cell-based; set-up: a human whole blood assay driven by endogenously expressed TNFα; from tissue; host or cells: human whole blood; conditions: human whole blood IC50 multiplied by unbound fraction from plasma protein binding; read-out: CD11b in hWB, free IC50
Method: The compounds according to the Examples were assessed in a human whole blood assay driven by endogenously expressed TNFα by measuring the expression of CD11b on granulocytes in human whole blood challenged with zymosan. A serial diluted compound was pre-incubated with human whole blood for 1 h at 37° C./5% CO2. Zymosan (Invivogen, Tlrl-zyn) was added (final assay concentration […] in a total volume of 100 μl) with thorough mixing and incubated for 3 h at 37° C./5% CO2. The samples were then incubated with 10 μl antibody cocktail containing APC-conjugated anti-human CD45 antibody (Biolegend, cat #304012) and PE-conjugated anti-human CD11b antibody (Biolegend, cat #101208) for 30 min at 4° C. The blood was fixed/lysed for 10-15 min at 37° C. using FACS/lysing solution (BD sciences, cat #558049) and analyzed with CytoFlex S (Beckman Coulter). The number of single cells (SSC-A, SSC—W) positive for CD45 and expressing CD11b was determined using FlowJo software (BD Biosciences). Inhibition of CD11b activation was calculated against DMSO control. […]
A calculated IC50 for the free compound (free IC50) that considers the extent of fraction unbound in blood was determined by multiplying the IC50 generated from the human whole blood screening assay by the unbound fraction, generated from the plasma protein binding assay.

[4] = tested on: human induced pluripotent stem cell-derived cardiomyocytes (hiPSC-CMs); conditions: 10 μM
Method: The MEA study was designed to assess the in vitro inhibitory effect of compounds on extracellular field potential (EFP) of human induced pluripotent stem cell-derived cardiomyocytes (hiPSC-CMs) using the Maestro Pro multielectrode arrays system. The concentration response relationship was determined for each compound at 10 μM and 3 μM in duplicate to calculate the % change in EFP parameters.
hiPSC-CMs (Help Stem Cell Innovations Co.) were seeded in fibronectin-coated CytoView MEA 96-White plate at 20000 cells/well. The next day 2/3 of the plating medium volume was removed and replaced by maintenance media. Half of the maintenance medium was removed and replaced every 2 days. On day 6, compounds were made 2× final concentration (20 μM and 6 μM) in maintenance media. Half of the medium was removed from the wells and an equal volume of the appropriate treatment mix was added, and the EFP signal was recorded. […] Data that meet the above criteria for EFP recording quality were further analyzed as described in the following steps: […]
Axis Navigator 2.0.4. software was used to extract the peak current from the original data. The percentage of amplitude change from baseline was calculated using the following equation.
Two important readouts in MEA assay are used to evaluate risk of QT prolongation. […]

[5] = Caco-2 assay (permeability); format: in vitro ADME; conditions: human, Caco-2, pH 7.4; for Papp A→B at 2 h, 5 μM: apical to basolateral; for efflux ratio at 2 h, 5 μM: read-out: Caco-2, ER (efflux ratio)
Method: Cells were cultivated for 14-18 days in a cell culture incubator at 37° C., 5% CO2, 95% relative humidity. Cell culture medium was replaced every other day, beginning no later than 24 hours after initial plating.
10 mM stock solutions of test compounds were prepared in DMSO. The stock solutions of positive controls were prepared in DMSO at the concentration of 10 mM.
1) Medium was removed from the reservoir and each Transwell insert and replaced with prewarmed fresh culture medium.
2) Transepithelial electrical resistance (TEER) across the monolayer was measured using Millicell Epithelial Volt-Ohm measuring system (Millipore, USA).
3) The Plate was returned to the incubator once the measurement was done.
1) The Caco-2 plate was removed from the incubator and washed twice with pre-warmed HBSS (10 mM HEPES, pH 7.4), and then incubated at 37° C. for 30 minutes.
The final concentration of DMSO in the incubation system was 0.5%.
3) To determine the rate of drug transport in the apical to basolateral direction.
4) To determine the rate of drug transport in the basolateral to apical direction.
5) The plates were incubated at 37° C. for 2 hours.
6) At the end of the incubation, 50 μL samples from donor sides (apical compartment for Ap→Bl flux, and basolateral compartment for Bl→Ap) and receiver sides (basolateral compartment for Ap→Bl flux, and apical compartment for Bl→Ap) were transferred to wells of a new 96-well plate, followed by the addition of 4 volume of cold methanol containing appropriate internal standards (IS). Samples were vortexed for 5 minutes and then centrifuged at 3,220 g for 40 minutes. An aliquot of 100 μL of the supernatant was mixed with an appropriate volume of ultra-pure water before LC-MS/MS analysis.
100 μL of the Lucifer yellow solution was added to each Transwell insert (apical compartment), followed by filling the wells in the receiver plate (basolateral compartment) with 300 μL of HBSS (10 mM HEPES, pH 7.4).

[6] = SEAP readout, read-out: IC50 Range

SMILES: CN1C(=O)c2cccc(OC(F)F)c2[C@H]2C[C@@H]1c1nc3ccc(-c4cnc(C5(N)CCC5)nc4)cc3n12 [Comp. Ex #1, reference compound]
- Emax (TNFα [1]): 93%
- IC50 (TNFα [1]): 6.7 nM
- Emax (TNFα [2]): 96%
- IC50 (TNFα [2]; read-out: TNFα reporter, IC50): 4.8 nM
- IC50 (TNFα [3]): 9.3 nM
- Cardiomyocytes FPDc prolong. [4]: > 20%
- EAD (early afterdepolarization) [4]: EAD

SMILES: CN1C(=O)c2cccc(OC(F)F)c2[C@H]2C[C@@H]1c1nc3ccc(-c4ccc(P(C)(C)=O)nc4)cc3n12 [Comp. Ex #4, reference compound]
- Papp A→B at 2 h, 5 μM [5]: 0.6 ×10⁻⁶ cm/s
- efflux ratio at 2 h, 5 μM [5]: 47.5
- Emax (TNFα [2]): 82%
- IC50 (TNFα [2]; read-out: TNFα reporter, IC50): 7.9 nM

SMILES: CN1C(=O)c2cccc(OC(F)F)c2[C@H]2C[C@@H]1c1nn3ccc(-c4cnc(C5(N)CCC5)nc4)cc3c12 [Example 15]
- Emax (TNFα [1]): 97%
- IC50 (TNFα [1]): 2.8 nM
- IC50 (TNFα [2]; [6]): < 25 nM
- Emax (TNFα [2]): 95%
- IC50 (TNFα [2]; read-out: TNFα reporter, IC50): 4.1 nM
- IC50 (TNFα [3]): 2.1 nM

SMILES: CN1C(=O)c2cccc(OC(F)F)c2[C@H]2C[C@@H]1c1nn3ccc(-c4ccc(P(C)(C)=O)nc4)cc3c12 [Example 20]
- Papp A→B at 2 h, 5 μM [5]: 1.7 ×10⁻⁶ cm/s
- efflux ratio at 2 h, 5 μM [5]: 22.8
- IC50 (TNFα [2]; [6]): < 25 nM
- Emax (TNFα [2]): 89%
- IC50 (TNFα [2]; read-out: TNFα reporter, IC50): 3.8 nM

SMILES: CC(=O)c1cccc2c1[C@H]1C[C@H](c3nn4ccc(-c5cnc(C6(N)CCC6)nc5)cc4c31)N(C)C2=O [Example 314, (7R,14R)-1-acetyl-12-(2-(1-aminocyclobutyl)pyrimidin-5-yl)-6-methyl-6,7-dihydro-7,14-methanobenzo[c]pyrido[1′,2′:1,5]pyrazolo[4,3-f]azocin-5 (14H)-one]
- IC50 (TNFα [2]; [6]): < 25 nM

SMILES: Cn1ccc(N2CC=C(c3ccn4nc5c(c4c3)[C@@H]3C[C@H]5NC(=O)c4cccc(OC(F)F)c43)CC2)n1 [Example 315, (7R,14S)-1-(difluoromethoxy)-12-(1-(1-methyl-1H-pyrazol-3-yl)-1,2,3,6-tetrahydropyridin-4-yl)-6,7-dihydro-7,14-methanobenzo[c]pyrido[1′,2′:1,5]pyrazolo[4,3-f]azocin-5 (14H)-one]
- IC50 (TNFα [2]; [6]): 25 to 100 nM

SMILES: CN1C(=O)c2cccc(OC(F)F)c2[C@H]2C[C@@H]1c1nn3ccc([C@H]4CC[C@@H](OC[C@@H](O)CO)CC4)cc3c12 [Example 316, (7R,14S)-1-(difluoromethoxy)-12-((1R,4R)-4-((S)-2,3-dihydroxypropoxy)cyclohexyl)-6-methyl-6,7-dihydro-7,14-methanobenzo[c]pyrido[1′,2′:1,5]pyrazolo[4,3-f]azocin-5 (14H)-one]
- IC50 (TNFα [2]; [6]): < 25 nM

SMILES: CN1C(=O)c2cccc(OC(F)F)c2[C@H]2C[C@@H]1c1nn3ccc([C@H]4CC[C@@H](OC[C@H](O)CO)CC4)cc3c12 [Example 317, (7R,14S)-1-(difluoromethoxy)-12-((1S,4R)-4-((R)-2,3-dihydroxypropoxy)cyclohexyl)-6-methyl-6,7-dihydro-7,14-methanobenzo[c]pyrido[1′,2′:1,5]pyrazolo[4,3-f]azocin-5 (14H)-one]
- IC50 (TNFα [2]; [6]): < 25 nM

SMILES: CN1C(=O)c2ccnc(OC(F)F)c2[C@H]2C[C@@H]1c1nn3ccc(-c4cnc([C@]5(O)C[C@@](C)(O)C5)nc4)cc3c12 [Example 320, (7R,14S)-1-(difluoromethoxy)-12-(2-((1s,3R)-1,3-dihydroxy-3-methylcyclobutyl)pyrimidin-5-yl)-6-methyl-6,7-dihydro-7,14-methanopyrido[4,3-c]pyrido[1′,2′:1,5]pyrazolo[4,3-f]azocin-5 (14H)-one]
- IC50 (TNFα [2]; [6]): < 25 nM

SMILES: CN1C(=O)c2ccc(OC(F)F)nc2[C@H]2C[C@@H]1c1nn3ccc(-c4cnc([C@]5(O)C[C@@](C)(O)C5)nc4)cc3c12 [Example 321, 2-(difluoromethoxy)-12-(2-((1s, 3s)-1,3-dihydroxy-3-methylcyclobutyl)pyrimidin-5-yl)-6-methyl-6,7-dihydro-7,14-methanopyrido[3,2-c]pyrido[1′,2′:1,5]pyrazolo[4,3-f]azocin-5 (14H)-one]
- IC50 (TNFα [2]; [6]): 25 to 100 nM

SMILES: CN1C(=O)c2c(F)ccc(OC(F)F)c2[C@H]2C[C@@H]1c1nn3ccc(-c4cnc(C5(N)CCC5)nc4)cc3c12 [Example 322, (7R,14S)-12-(2-(1-aminocyclobutyl)pyrimidin-5-yl)-1-(difluoromethoxy)-4-fluoro-6-methyl-6,7-dihydro-7,14-methanobenzo[c]pyrido[1′,2′:1,5]pyrazolo[4,3-f]azocin-5 (14H)-one]
- IC50 (TNFα [2]; [6]): 25 to 100 nM

SMILES: CN1C(=O)c2cccc(OC(F)F)c2[C@H]2C[C@@H]1c1nn3ccc(-c4cnc(C(C)(C)N)nc4)cc3c12 [Example 324]
- IC50 (TNFα [2]; [6]): < 25 nM

SMILES: [2H]C([2H])([2H])N1C(=O)c2cccc(OC(F)F)c2[C@H]2C[C@@H]1c1nn3ccc(-c4cnc(C(C)(C)N)c(F)c4)cc3c12 [Example 325]
- IC50 (TNFα [2]; [6]): < 25 nM

SMILES: [2H]C([2H])([2H])N1C(=O)c2cccc(OC(F)F)c2[C@H]2C[C@@H]1c1nn3ccc(-c4cnc(C(C)(C)N)c(F)c4)nc3c12 [Example 326]
- IC50 (TNFα [2]; [6]): < 25 nM

SMILES: [2H]C([2H])([2H])N1C(=O)c2cccc(OC(F)F)c2[C@H]2C[C@@H]1c1nn3ccc(-c4cnc5c(c4)CC[C@]5(C)N)cc3c12 [Example 327]
- IC50 (TNFα [2]; [6]): < 25 nM

SMILES: [2H]C([2H])([2H])N1C(=O)c2cccc(OC(F)F)c2[C@H]2C[C@@H]1c1nn3ccc(-c4cnc5c(c4)CC[C@@]5(C)N)cc3c12 [Example 328]
- IC50 (TNFα [2]; [6]): < 25 nM

SMILES: C[C@]1(O)C[C@](N)(c2ncc(-c3ccn4nc5c(c4c3)[C@@H]3C[C@H]5N(C4CC4)C(=O)c4cccc(OC(F)F)c43)cn2)C1 [Example 329]
- IC50 (TNFα [2]; [6]): < 25 nM
